# Test results as given in patent US11578084B2, “Condensed ring compounds having dopamine D3 receptor antagonistic effect” (Shionogi & Co., Ltd., priority 2018, dated 2023).
# Like-named read-outs stand apart in the source and are kept apart here.
# Key:
# [1] = biological target: human recombinant dopamine D2 receptor (Homo sapiens (Human), UniProt P14416); assay: Test of binding inhibition for dopamine D2 receptor ([3H]-Methylspiperone SPA); conditions: Jump-In HEK cell membranes, read-out: hD2_Ki
# Experimental: (§1) (Experimental Conditions)
# Cell membranes: Jump-In HEK cell membranes expressing human recombinant dopamine D2 receptor (2 μg/well)
# (§2) Non-specific ligand: (final concentration) 10 μM Butaclamol [(+)-Butaclamol Hydrochloride, D033, Sigma]
# (§3) SPA beads solution: SPA beads [WGA PVT SPA Scintillation Beads, RPNQ0001 (500 mg), RPNQ0060 (2 g), PerkinElmer] (0.2 mg/well)
# (§4) Incubation time and temperature: 120 min at 25° C.
# (§5) Butaclamol or the compounds of the present invention were weighed and DMSO was added to make a 10 mM solution. This solution was diluted to each concentration.
# (§6) SPA beads were weighed and stirred in water to make a 50 mg/mL solution. Using this solution, a mixture with the cell membranes was prepared.
# Jump-In HEK Cell membranes (final reaction amount: 2 μg protein/well), the SPA beads solution (final reaction amount: 0.2 mg/well) and the buffer solution were mixed, and the mixed solution was left still for 1 hour or more at 4° C. Then, 50 μL of the mixture was added to each well of the plate. […] Non-specific binding was calculated based on the radioactivity of [^3H]-Methylspiperone in the presence of 10 μM non-labeled Butaclamol. The total binding was calculated using the radioactivity of [^3H]-Methylspiperone in the absence of the compounds of the present invention (Vehicle). The Ki values were calculated from dose-response curves.
# (§7) Binding activities of the compounds of the present invention were calculated from the following Binding Inhibition Rate (%): Inhibition Rate (%)=[1−(c−a)/(b−a)]×100 • a: Average cpm of non-specific binding • b: Average cpm of total binding • c: Cpm in the presence of each test compound
# [2] = biological target: human recombinant dopamine D3 receptor (Homo sapiens (Human), UniProt P35462); assay: Test of binding inhibition for dopamine D3 receptor ([3H]-Methylspiperone SPA); conditions: Jump-In HEK cell membranes, 2 nM [3H]-Methylspiperone, 120 min at 25° C.; read-out: hD3_Ki
# Experimental: as §1
# Cell membranes: Jump-In HEK cell membranes expressing human recombinant dopamine D3 receptor (4 μg/well)
# as §2, §3, §4, §5
# [^3H]-Methylspiperone was weighed and the buffer solution was added to make a 6 nM solution.
# as §6
# Jump-In HEK Cell membranes (final reaction amount: 4 μg protein/well), the SPA beads solution (final reaction amount: 0.2 mg/well) and the buffer solution were mixed and the mixed solution was left still for 1 hour or more at 4° C. Then, 50 μL of the mixture was added to each well of the plate. In addition, 25 μL of 6 nM [^3H]-Methylspiperone (final concentration: 2 nM) was added to each well. […] Non-specific binding was calculated based on the radioactivity of [^3H]-Methylspiperone in the presence of 10 μM non-labeled Butaclamol. The total binding was calculated using the radioactivity of [H]-Methylspiperone in the absence of the compounds of the present invention (vehicle). The Ki values were calculated from dose-response curves.
# as §7
# [3] = 1.2 nM [3H]-Methylspiperone, 120 min at 25° C.
# Chain of human recombinant dopamine D2 receptor (P14416 whole entry): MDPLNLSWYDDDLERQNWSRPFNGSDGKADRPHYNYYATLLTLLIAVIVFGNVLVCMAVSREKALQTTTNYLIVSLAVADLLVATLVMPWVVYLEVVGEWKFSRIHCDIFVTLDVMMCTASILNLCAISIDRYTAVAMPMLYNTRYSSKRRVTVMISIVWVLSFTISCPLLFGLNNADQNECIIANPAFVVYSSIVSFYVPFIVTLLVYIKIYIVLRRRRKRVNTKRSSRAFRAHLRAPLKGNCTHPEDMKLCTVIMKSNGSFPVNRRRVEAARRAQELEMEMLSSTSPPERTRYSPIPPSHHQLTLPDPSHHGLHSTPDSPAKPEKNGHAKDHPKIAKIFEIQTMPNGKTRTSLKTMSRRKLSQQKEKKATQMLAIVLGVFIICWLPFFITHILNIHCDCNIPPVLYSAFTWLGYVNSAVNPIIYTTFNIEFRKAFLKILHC
# Chain of human recombinant dopamine D3 receptor (P35462 whole entry): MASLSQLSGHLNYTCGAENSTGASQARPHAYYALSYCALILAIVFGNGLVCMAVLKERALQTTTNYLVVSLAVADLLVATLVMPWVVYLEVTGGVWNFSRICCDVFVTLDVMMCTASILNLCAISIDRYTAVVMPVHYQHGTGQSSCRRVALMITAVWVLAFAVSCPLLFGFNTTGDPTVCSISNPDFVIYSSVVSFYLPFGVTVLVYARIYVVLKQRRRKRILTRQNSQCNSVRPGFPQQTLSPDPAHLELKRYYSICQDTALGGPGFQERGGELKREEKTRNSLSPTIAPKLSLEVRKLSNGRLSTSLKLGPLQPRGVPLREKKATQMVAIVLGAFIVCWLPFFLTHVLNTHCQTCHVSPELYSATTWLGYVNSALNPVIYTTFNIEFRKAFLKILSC
SMILES,"Ki [1, 3]",Ki [2],Ki ([1]; [3H]-Methylspiperone 1.2 nM)
C[C@@H](Oc1ccc2c(n1)CCN(CC[C@H]1CC[C@H](NC(=O)Cc3cnn(C)n3)CC1)CC2)C(F)(F)F [Example I-128],510 nM,0.073 nM,
Cc1nnc(CC(=O)N[C@H]2CC[C@H](CCN3CCc4ccc(O[C@H](C)C(F)(F)F)nc4CC3)CC2)s1 [Example I-129],290 nM,0.085 nM,
Cc1nc(CC(=O)N[C@H]2CC[C@H](CCN3CCc4ccc(O[C@H](C)C(F)(F)F)nc4CC3)CC2)nn1C [Example I-130],1200 nM,0.49 nM,
Cc1ncc(CC(=O)N[C@H]2CC[C@H](CCN3CCc4ccc(O[C@H](C)C(F)(F)F)nc4CC3)CC2)cn1 [Example I-131],410 nM,0.35 nM,
C[C@@H](Oc1ccc2c(n1)CCN(CC[C@H]1CC[C@H](NC(=O)c3cccc(=O)n3C)CC1)CC2)C(F)(F)F [Example I-132],300 nM,0.12 nM,
C[C@@H](Oc1ccc2c(n1)CCN(CC[C@H]1CC[C@H](NC(=O)COc3cnn(C)c3)CC1)CC2)C(F)(F)F [Example I-133],190 nM,0.15 nM,
Cc1cnc(CC(=O)N[C@H]2CC[C@](F)(CCN3CCc4ccc(CCC(F)(F)F)nc4CC3)CC2)o1 [Example I-141],> 2300 nM,0.41 nM,
Cn1ncc(CC(=O)N[C@H]2CC[C@](F)(CCN3CCc4ccc(CCC(F)(F)F)nc4CC3)CC2)n1 [Example I-144],1500 nM,0.32 nM,
O=C(N[C@H]1CC[C@](F)(CCN2CCc3nc(OCC(F)(F)F)sc3CC2)CC1)c1cccnc1C(F)F [Example I-159],580 nM,0.36 nM,
O=C(N[C@H]1CC[C@](F)(CCN2CCc3nc(OCC(F)F)sc3CC2)CC1)c1cccnc1C(F)F [Example I-160],1100 nM,0.83 nM,
O=C(N[C@H]1CC[C@H](CCN2CCc3nc(OCC(F)F)sc3CC2)CC1)c1cccnc1C(F)F [Example I-161],940 nM,0.32 nM,
CC(F)(F)COc1nc2c(s1)CCN(CC[C@]1(F)CC[C@@H](NC(=O)c3cccnc3C(F)F)CC1)CC2 [Example I-162],740 nM,0.56 nM,
CC(F)(F)COc1nc2c(s1)CCN(CC[C@H]1CC[C@H](NC(=O)c3cccnc3C(F)F)CC1)CC2 [Example I-163],430 nM,0.31 nM,
O=C(N[C@H]1CC[C@H](CCN2CCc3nc(OC4CC(F)(F)C4)sc3CC2)CC1)c1cccnc1C(F)F [Example I-168],1000 nM,0.31 nM,
C[C@@H](Oc1ccc2c(n1)CCN(CC[C@]1(F)CC[C@@H](NC(=O)Cc3cnn(C)n3)CC1)CC2)C(F)(F)F [Example I-174],370 nM,0.33 nM,
Cc1nc(CC(=O)N[C@H]2CC[C@](F)(CCN3CCc4ccc(O[C@H](C)C(F)(F)F)nc4CC3)CC2)nn1C [Example I-180],850 nM,0.85 nM,
Cn1c(C(=O)NC23CCC(CCN4CCc5nc(OCC(F)(F)F)sc5CC4)(CC2)CC3)cccc1=O [II-1],,0.17 nM,830 nM
CN1Cc2c(C(=O)NC34CCC(CCN5CCc6nc(OCC(F)(F)F)sc6CC5)(CC3)CC4)cccc2C1=O [II-2],,0.079 nM,> 2200 nM
O=C(NC12CCC(CCN3CCc4nc(OCC(F)(F)F)sc4CC3)(CC1)CC2)c1cccnc1C(F)F [II-3],,0.29 nM,1400 nM
Cn1ncc(CC(=O)NC23CCC(CCN4CCc5nc(OCC(F)(F)F)sc5CC4)(CC2)CC3)n1 [II-4],,0.16 nM,1400 nM
Cc1nnc(CC(=O)NC23CCC(CCN4CCc5nc(OCC(F)(F)F)sc5CC4)(CC2)CC3)o1 [II-5],,0.2 nM,1300 nM
Cc1ncc(CC(=O)NC23CCC(CCN4CCc5nc(OCC(F)(F)F)sc5CC4)(CC2)CC3)cn1 [II-6],,0.35 nM,1200 nM
Cc1ncccc1C(=O)NC12CCC(CCN3CCc4nc(OCC(F)(F)F)sc4CC3)(CC1)CC2 [II-7],,0.39 nM,1700 nM
CN1Cc2c(C(=O)NC34CCC(CCN5CCc6nc(OCC(F)F)sc6CC5)(CC3)CC4)cccc2C1=O [II-10],,0.5 nM,> 2300 nM
Cc1ncccc1C(=O)NC12CCC(CCN3CCc4ccc(OCC(F)F)nc4CC3)(CC1)CC2 [II-13],,0.56 nM,2100 nM

SMILES,"Ki [1, 3]",Ki [2],Ki ([1]; [3H]-Methylspiperone 1.2 nM)
Cc1cnc(CC(=O)NC23CCC(CCN4CCc5ccc(OCC(C)(F)F)nc5CC4)(CC2)CC3)o1 [II-14],,0.23 nM,760 nM
Cc1ncc(/C=C/C(=O)NC23CCC(CCN4CCc5nc(OCC(F)(F)F)sc5CC4)(CC2)CC3)cn1 [II-15],,0.16 nM,240 nM
Cc1nnc(CC(=O)N[C@H]2CC[C@](F)(CCN3CCc4ccc(CCC(F)(F)F)nc4CC3)CC2)s1 [III-1],> 2300 nM,0.14 nM,
Cc1nc(CC(=O)N[C@H]2CC[C@](F)(CCN3CCc4ccc(CCC(F)(F)F)nc4CC3)CC2)nn1C [III-2],1200 nM,0.16 nM,
Cc1cc(CC(=O)N[C@H]2CC[C@](F)(CCN3CCc4ccc(CCC(F)(F)F)nc4CC3)CC2)on1 [III-3],> 2300 nM,0.029 nM,
Cc1nnc(CC(=O)N[C@H]2CC[C@H](CCN3CCc4nc(O[C@@H](C)C(F)(F)F)sc4CC3)CC2)o1 [III-4],780 nM,0.16 nM,
C[C@H](Oc1nc2c(s1)CCN(CC[C@H]1CC[C@H](NC(=O)c3cccc(=O)n3C)CC1)CC2)C(F)(F)F [III-5],1000 nM,0.23 nM,
C[C@H](Oc1nc2c(s1)CCN(CC[C@H]1CC[C@H](NC(=O)Cc3cnn(C)n3)CC1)CC2)C(F)(F)F [III-6],1600 nM,0.15 nM,
Cc1nnc(CC(=O)N[C@H]2CC[C@H](CCN3CCc4ccc(O[C@@H](C)C(F)(F)F)nc4CC3)CC2)o1 [III-7],290 nM,0.09 nM,
Cc1nnc(CC(=O)N[C@H]2CC[C@](F)(CCN3CCc4nc(OCC(F)(F)C(F)F)sc4CC3)CC2)o1 [III-8],480 nM,0.16 nM,
Cn1ncc(CC(=O)N[C@H]2CC[C@](F)(CCN3CCc4nc(OCC(F)(F)C(F)F)sc4CC3)CC2)n1 [III-9],770 nM,0.081 nM,
Cc1ncccc1C(=O)N[C@H]1CC[C@H](CCN2CCc3ccc(CCC(F)(F)F)nc3CC2)CC1 [I′-1],,0.43 nM,920 nM
COc1cc(CC(=O)N[C@H]2CC[C@H](CCN3CCc4ccc(CCC(F)(F)F)nc4CC3)CC2)on1 [I′-2],,0.21 nM,> 2300 nM
Cc1nnc(CC(=O)N[C@H]2CC[C@H](CCN3CCc4ccc(CCC(F)(F)F)nc4CC3)CC2)o1 [I′-3],,0.18 nM,1100 nM
Cn1cc(CC(=O)N[C@H]2CC[C@H](CCN3CCc4ccc(CCC(F)(F)F)nc4CC3)CC2)cn1 [I′-4],,0.22 nM,1200 nM
Cn1c(C(=O)N[C@H]2CC[C@H](CCN3CCc4ccc(CCC(F)(F)F)nc4CC3)CC2)cccc1=O [I′-5],,0.22 nM,610 nM
Cc1ncc(OCC(=O)N[C@H]2CC[C@H](CCN3CCc4ccc(CCC(F)(F)F)nc4CC3)CC2)cn1 [I′-7],,0.12 nM,1100 nM
Cc1cc(OCC(=O)N[C@H]2CC[C@H](CCN3CCc4ccc(CCC(F)(F)F)nc4CC3)CC2)no1 [I′-8],,0.071 nM,> 2300 nM
Cn1cc2c(C(=O)N[C@H]3CC[C@H](CCN4CCc5ccc(CCC(F)(F)F)nc5CC4)CC3)ccc(F)c2n1 [I′-9],,0.11 nM,530 nM
Cc1ncc(CC(=O)N[C@H]2CC[C@H](CCN3CCc4ccc(CCC(F)(F)F)nc4CC3)CC2)o1 [I′-10],,0.23 nM,1100 nM
Cc1nc(CC(=O)N[C@H]2CC[C@H](CCN3CCc4ccc(CCC(F)(F)F)nc4CC3)CC2)no1 [I′-11],,0.18 nM,1200 nM
Cc1nnc(CC(=O)N[C@H]2CC[C@H](CCN3CCc4ccc(CCC(F)(F)F)nc4CC3)CC2)s1 [I′-12],,0.29 nM,820 nM
Cc1cnc(OCC(=O)N[C@H]2CC[C@H](CCN3CCc4ccc(CCC(F)(F)F)nc4CC3)CC2)cn1 [I′-13],,0.43 nM,910 nM
Cc1nc(CC(=O)N[C@H]2CC[C@H](CCN3CCc4ccc(CCC(F)(F)F)nc4CC3)CC2)nn1C [I′-14],,0.21 nM,> 2300 nM
Cc1nc(CC(=O)N[C@H]2CC[C@H](CCN3CCc4ccc(CCC(F)(F)F)nc4CC3)CC2)n(C)n1 [I′-15],,1.4 nM,1700 nM
